Active and inactive are the calls of the source. The calls are words filed in the database; no cut-off is given here.
Tests used:
[1] = test system: HeLa; assay: Induction of ROS generation in human HeLa cells at 0.1 to 0.6 uM measured after 24 hrs by H2DC-DA probe-based FACS analysis; format: functional, cell-based
[2] = molecular target: Focal adhesion kinase 1 (Homo sapiens, UniProt Q05397); assay: Inhibition of recombinant human N-terminal GST-fused FAK (2 to 1052 residues) expressed in Sf9 insect cells using Poly(Glu/Tyr)4:1 as substrate measured after 60 mins in presence of [gamma-33P]-ATP by scintillation counting method
[3] = molecular target: RAC-beta serine/threonine-protein kinase (Homo sapiens, UniProt P31751); assay: Inhibition of recombinant human full-length N-terminal GST-His6-fused AKT2 (M1 to E481 residues) expressed in Sf9 insect cells using GSK3-derived peptide as substrate measured after 60 mins in presence of [gamma-33P]-ATP by scintillation counting method
[4] = molecular target: Wee1-like protein kinase (Homo sapiens, UniProt P30291); assay: Inhibition of recombinant human N-terminal GST-His6-fused WEE1 C-terminal domain (Q36 to Y432 residues) expressed in Sf9 cells using Poly(Ala,Glu,Lys,Tyr)6:2:5:1 as substrate measured after 60 mins in presence of [gamma-33P]-ATP by scintillation counting method
[5] = molecular target: Tyrosine-protein kinase ABL1 (Homo sapiens, UniProt P00519); assay: Inhibition of recombinant human wild-type N-terminal GST-His6-fused ABL1 internal domain (P118 to S535 residues) expressed in Sf9 insect cells using Poly(Ala,Glu,Lys,Tyr)6:2:5:1 as substrate measured after 60 mins in presence of [gamma-33P]-ATP by scintillation counting method
[6] = molecular target: Vascular endothelial growth factor receptor 1 (Homo sapiens, UniProt P17948); assay: Inhibition of recombinant human N-terminal GST-tagged VEGFR1 C-terminal domain (K784 to I1338 residues) expressed in Sf9 insect cells using Poly(Glu:Tyr)4:1 as substrate measured after 60 mins in presence of [gamma-33P]-ATP by scintillation counting method
[7] = molecular target: Vascular endothelial growth factor receptor 3 (Homo sapiens, UniProt P35916); assay: Inhibition of recombinant human N-terminal GST-His6 fused VEGFR3 C-terminal domain (N799 to R1298 residues) expressed in baculovirus infected Sf9 insect cells using Poly(Glu:Tyr)4:1 as substrate measured after 60 mins in presence of [gamma-33P]-ATP by scintillation counting method
[8] = molecular target: Proto-oncogene tyrosine-protein kinase Src (Homo sapiens, UniProt P12931); assay: Inhibition of recombinant human full-length N-terminal GST-His6-fused SRC (M1 to L536 residues) expressed in Sf9 insect cells using Poly(Glu:Tyr)4:1 as substrate measured after 60 mins in presence of [gamma-33P]-ATP by scintillation counting method
[9] = test system: IEC-6; assay: Induction of ROS generation in rat IEC-6 cells at 0.1 to 0.6 uM measured after 24 hrs by H2DCF-DA staining-based FACS analysis; format: cell-based; conditions: iec-6, 24 h
[10] = molecular target: Epidermal growth factor receptor (Homo sapiens, UniProt P00533); assay: Inhibition of recombinant human wild-type N-terminal GST-His6-fused EGFR C-terminal domain (H672 to A1210) expressed in Sf9 insect cells using Poly(Glu:Tyr)4:1 as substrate measured after 60 mins in presence of [gamma-33P]-ATP by scintillation counting method
[11] = test system: HeLa; assay: Antiproliferative activity against human HeLa cells assessed as decrease in cell viability measured after 72 hrs by MTT assay; format: functional, cell-based

Sequence of Proto-oncogene tyrosine-protein kinase Src (P12931 2-536 limits assumed): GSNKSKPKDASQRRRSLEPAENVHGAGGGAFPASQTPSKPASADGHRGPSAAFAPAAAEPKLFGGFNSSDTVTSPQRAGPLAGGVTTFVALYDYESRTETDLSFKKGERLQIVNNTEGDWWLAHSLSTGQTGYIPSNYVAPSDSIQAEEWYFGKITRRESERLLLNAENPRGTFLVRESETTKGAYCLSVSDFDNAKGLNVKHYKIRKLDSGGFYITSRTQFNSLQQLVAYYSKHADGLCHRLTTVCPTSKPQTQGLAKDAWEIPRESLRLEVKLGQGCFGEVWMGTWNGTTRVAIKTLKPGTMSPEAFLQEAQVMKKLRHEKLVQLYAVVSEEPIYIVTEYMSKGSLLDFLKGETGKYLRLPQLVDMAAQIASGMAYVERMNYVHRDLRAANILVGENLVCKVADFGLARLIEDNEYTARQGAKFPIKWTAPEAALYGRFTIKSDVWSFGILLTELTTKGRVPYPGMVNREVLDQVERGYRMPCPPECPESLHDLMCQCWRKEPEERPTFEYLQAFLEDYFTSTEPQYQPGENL
Sequence of Vascular endothelial growth factor receptor 1 (P17948 whole entry, the tested form may be a part): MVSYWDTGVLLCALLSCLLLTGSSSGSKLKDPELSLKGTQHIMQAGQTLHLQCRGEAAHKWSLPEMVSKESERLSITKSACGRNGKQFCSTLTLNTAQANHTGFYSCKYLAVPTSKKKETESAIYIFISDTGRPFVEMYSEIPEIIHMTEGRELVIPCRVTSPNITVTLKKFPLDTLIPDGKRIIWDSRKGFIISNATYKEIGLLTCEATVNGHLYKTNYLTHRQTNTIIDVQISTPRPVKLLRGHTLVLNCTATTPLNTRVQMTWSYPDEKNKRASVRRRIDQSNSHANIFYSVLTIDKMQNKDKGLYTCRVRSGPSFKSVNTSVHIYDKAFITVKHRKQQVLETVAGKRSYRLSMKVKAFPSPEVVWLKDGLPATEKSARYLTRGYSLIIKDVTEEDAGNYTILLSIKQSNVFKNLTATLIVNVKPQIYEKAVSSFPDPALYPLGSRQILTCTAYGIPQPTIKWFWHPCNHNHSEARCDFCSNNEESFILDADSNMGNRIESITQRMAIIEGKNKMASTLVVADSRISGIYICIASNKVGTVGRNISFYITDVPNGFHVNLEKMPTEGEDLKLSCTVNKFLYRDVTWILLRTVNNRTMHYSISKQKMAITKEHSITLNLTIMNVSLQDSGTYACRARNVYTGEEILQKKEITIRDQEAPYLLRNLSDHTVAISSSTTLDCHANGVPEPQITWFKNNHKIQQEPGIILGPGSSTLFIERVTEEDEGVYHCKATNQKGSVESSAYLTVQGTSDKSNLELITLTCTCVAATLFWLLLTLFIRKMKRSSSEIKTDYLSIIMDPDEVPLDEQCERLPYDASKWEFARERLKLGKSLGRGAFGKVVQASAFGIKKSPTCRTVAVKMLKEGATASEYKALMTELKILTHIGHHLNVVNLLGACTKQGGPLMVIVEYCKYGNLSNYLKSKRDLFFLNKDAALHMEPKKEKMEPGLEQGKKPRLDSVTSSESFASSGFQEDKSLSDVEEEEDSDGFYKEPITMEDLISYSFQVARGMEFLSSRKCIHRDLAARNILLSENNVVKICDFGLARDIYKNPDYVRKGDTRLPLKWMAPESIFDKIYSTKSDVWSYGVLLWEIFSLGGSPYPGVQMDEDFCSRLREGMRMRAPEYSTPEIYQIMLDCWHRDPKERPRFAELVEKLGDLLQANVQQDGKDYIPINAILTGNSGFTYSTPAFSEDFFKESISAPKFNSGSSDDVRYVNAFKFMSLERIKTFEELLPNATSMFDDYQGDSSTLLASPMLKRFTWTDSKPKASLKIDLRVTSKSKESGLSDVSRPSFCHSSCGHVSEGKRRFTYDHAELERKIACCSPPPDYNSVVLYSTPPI
Sequence of Vascular endothelial growth factor receptor 3 (P35916 whole entry, the tested form may be a part): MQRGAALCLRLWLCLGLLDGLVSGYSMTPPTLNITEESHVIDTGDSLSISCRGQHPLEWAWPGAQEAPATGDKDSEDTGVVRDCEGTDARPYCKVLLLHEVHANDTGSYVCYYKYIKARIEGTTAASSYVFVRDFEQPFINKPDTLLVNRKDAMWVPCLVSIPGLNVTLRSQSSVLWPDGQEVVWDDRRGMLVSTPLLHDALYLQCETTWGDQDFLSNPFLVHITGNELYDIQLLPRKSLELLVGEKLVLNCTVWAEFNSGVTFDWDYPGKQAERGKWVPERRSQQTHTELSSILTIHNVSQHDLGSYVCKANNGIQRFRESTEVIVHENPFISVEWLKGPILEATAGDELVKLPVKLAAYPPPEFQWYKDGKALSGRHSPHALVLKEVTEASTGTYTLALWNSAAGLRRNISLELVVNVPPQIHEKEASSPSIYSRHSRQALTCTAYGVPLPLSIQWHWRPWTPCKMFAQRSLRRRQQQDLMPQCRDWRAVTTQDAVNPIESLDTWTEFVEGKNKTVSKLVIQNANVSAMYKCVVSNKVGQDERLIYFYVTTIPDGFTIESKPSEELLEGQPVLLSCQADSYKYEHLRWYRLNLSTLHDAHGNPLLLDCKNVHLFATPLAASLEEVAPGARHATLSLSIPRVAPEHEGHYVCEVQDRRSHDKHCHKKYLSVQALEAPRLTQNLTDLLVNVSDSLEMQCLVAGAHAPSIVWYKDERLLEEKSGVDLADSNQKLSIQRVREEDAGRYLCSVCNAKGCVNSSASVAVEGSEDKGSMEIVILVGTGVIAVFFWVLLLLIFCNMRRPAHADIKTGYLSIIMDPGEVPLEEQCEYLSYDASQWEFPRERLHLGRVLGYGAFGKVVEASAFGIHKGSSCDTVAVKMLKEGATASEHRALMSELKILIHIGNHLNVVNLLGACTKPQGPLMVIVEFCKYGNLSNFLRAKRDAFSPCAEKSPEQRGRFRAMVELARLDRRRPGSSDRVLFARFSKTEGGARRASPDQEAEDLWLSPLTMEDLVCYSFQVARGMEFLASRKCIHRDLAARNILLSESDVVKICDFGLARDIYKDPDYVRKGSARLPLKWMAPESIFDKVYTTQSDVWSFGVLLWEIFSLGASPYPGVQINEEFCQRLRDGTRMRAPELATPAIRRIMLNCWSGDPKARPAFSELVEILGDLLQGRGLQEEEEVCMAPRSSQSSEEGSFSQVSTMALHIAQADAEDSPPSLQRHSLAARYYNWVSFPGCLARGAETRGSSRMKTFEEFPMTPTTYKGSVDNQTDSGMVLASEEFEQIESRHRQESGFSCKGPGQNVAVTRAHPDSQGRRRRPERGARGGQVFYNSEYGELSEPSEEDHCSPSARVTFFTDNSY
Sequence of RAC-beta serine/threonine-protein kinase (P31751 whole entry, the tested form may be a part): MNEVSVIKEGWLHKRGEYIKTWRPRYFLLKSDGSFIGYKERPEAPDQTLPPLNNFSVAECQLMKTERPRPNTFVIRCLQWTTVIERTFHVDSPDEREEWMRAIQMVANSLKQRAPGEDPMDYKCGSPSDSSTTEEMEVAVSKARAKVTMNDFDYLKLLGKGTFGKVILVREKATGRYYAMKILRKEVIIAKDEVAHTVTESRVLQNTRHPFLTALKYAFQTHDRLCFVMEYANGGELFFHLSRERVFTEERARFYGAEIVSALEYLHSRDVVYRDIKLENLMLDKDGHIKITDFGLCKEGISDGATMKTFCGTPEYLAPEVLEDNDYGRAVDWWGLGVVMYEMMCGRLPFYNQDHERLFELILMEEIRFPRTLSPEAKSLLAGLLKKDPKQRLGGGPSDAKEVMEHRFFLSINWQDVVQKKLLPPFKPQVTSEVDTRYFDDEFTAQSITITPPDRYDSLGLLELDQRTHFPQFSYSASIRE
Sequence of Focal adhesion kinase 1 (Q05397 whole entry, the tested form may be a part): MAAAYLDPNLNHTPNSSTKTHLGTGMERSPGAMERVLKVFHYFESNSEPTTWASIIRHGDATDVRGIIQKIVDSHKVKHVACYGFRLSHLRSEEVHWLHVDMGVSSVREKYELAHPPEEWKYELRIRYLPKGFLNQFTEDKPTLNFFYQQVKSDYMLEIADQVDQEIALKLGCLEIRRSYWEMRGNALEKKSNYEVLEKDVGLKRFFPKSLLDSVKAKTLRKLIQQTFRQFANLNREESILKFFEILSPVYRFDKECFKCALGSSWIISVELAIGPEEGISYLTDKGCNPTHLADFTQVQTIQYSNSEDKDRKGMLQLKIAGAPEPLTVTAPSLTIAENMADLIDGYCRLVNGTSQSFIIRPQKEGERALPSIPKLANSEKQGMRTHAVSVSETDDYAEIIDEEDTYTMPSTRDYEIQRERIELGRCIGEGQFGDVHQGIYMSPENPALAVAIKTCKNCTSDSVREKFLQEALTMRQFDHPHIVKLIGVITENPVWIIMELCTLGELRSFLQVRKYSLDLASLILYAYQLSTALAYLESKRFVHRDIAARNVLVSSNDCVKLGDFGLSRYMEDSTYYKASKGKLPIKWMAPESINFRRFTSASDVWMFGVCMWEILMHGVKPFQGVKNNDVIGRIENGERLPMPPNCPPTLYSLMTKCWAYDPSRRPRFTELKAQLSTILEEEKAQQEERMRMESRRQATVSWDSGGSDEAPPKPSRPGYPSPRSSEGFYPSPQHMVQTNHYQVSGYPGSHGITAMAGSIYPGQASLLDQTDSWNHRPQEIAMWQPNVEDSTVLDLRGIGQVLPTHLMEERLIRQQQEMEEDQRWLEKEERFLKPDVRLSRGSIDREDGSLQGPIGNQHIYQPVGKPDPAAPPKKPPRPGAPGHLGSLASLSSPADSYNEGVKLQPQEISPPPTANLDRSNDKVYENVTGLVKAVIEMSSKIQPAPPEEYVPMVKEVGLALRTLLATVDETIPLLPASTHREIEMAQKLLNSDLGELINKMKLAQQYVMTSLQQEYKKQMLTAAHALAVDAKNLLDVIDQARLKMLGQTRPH

CN(CCc1ccc(-c2ccccc2)cc1)Cc1cn(C)c2ccc(C(=O)Nc3ccc(F)cc3)cc12
Activity [1]: Active
IC50 [2]: > 100 µM
IC50 [3]: > 100 µM
IC50 [4]: 79 µM
IC50 [5]: 69 µM
IC50 [6]: 43 µM
IC50 [7]: > 100 µM
IC50 [8]: 8.8 µM
Activity [9]: Toxic
IC50 [10]: 10 µM
IC50 [11]: 0.33 µM
